Drawing on US10280184B2, “Heterocyclic kinase inhibitors” (AbbVie Inc., priority 2014, dated 2019), this text covers IC50 for 39 compounds.

Where a name gives a salt, the structure may show the parent alone.

Chain of BTK (Q06187 393-659): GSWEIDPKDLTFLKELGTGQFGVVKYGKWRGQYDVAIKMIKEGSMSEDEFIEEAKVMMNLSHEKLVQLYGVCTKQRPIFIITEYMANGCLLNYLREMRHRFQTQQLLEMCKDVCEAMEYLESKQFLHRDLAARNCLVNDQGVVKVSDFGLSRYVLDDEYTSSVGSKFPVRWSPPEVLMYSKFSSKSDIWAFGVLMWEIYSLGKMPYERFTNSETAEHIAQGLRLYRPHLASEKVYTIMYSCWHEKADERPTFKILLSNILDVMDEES

The experiment has as its target BTK (Homo sapiens (Human), UniProt Q06187). Description: In vitro BTK kinase activity measured by trFRET. It is filed as biochemical. The note with it: recombinant human catalytic domain (aa 393-659), 0.01 mM ATP; read-out: Btk enzyme IC50. The method, then: In Vitro BTK Kinase Activity Measured by Time-Resolved Fluorescence Resonance Energy Transfer (trFRET)
The in-house BTK corresponds to recombinant human catalytic domain (aa 393-659), which was expressed in SF9 cells with an N-terminal his tag and purified by immobilized metal affinity chromatography. BTK was mixed with peptide substrate (biotin-TYR1, Sequence: Biotin-(Ahx)-GAEEEIYAAFFA-COOH, 0.4 μM final) at varying inhibitor concentrations in reaction buffer: 50 mM MOPSO pH 6.5, 10 mM MgCl2, 2 mM MnCl2, 2.5 mM DTT, 0.01% BSA, 0.1 mM Na3VO4 and 0.01 mM ATP. After about 60 min incubation at rt, the reaction was quenched by addition of EDTA (final concentration: 100 mM) and developed by addition of detection reagents (final approximate concentrations: 30 mM HEPES pH 7.0, 0.06% BSA, 0.006% Tween-20, 0.24 M KF, 80 ng/mL PT66K (europium labeled anti-phosphotyrosine antibody cat #61T66KLB Cisbio, Bedford, Mass.) and 0.6 μg/mL SAXL (Phycolink streptavidin-allophycocyanin acceptor, cat #PJ25S, Prozyme, San Leandro, Calif.). The developed reaction was incubated in the dark for about 60 min at rt, then read via a time-resolved fluorescence detector (Rubystar, BMG) using a 337 nm laser for excitation and monitoring emission wavelength at 665 nm. Within the linear range of the assay, the observed signal at 665 nm was directly related to phosphorylated product and can be used to calculate the IC50 values.
In general, IC50 refers to the point on the concentration scale where inhibition reaches its midpoint. For the compound `C=CC(=O)N1CCC[C@H](c2cc(Nc3cc4n(n3)CCOC4)c3ncnn3c2)C1` (single isomer, unassigned) [Example 5], the half-inhibitory concentration (IC50) is below 0.1 µM.
As to `C=CC(=O)N1CC[C@H](c2cn3ncnc3c(Nc3cnn(C)c3)n2)C1` (single isomer, unassigned) [Example 6], the IC50 was below 0.1 µM.
Turning to `C=CC(=O)N[C@@H]1CC[C@H](c2cc(Nc3ccn(C)n3)c3ncnn3c2)C1` (single isomer, unassigned) [Example 7], the IC50 is below 0.1 µM.
In the case of `C=CC(=O)N[C@@H]1CC[C@H](c2cc(Nc3cc4n(n3)CCOC4)c3ncnn3c2)C1` (single isomer, unassigned) [Example 8 (1R,3S)] it was below 0.1 µM.
Next, `C=CC(=O)N[C@H]1CC[C@@H](c2cc(Nc3cc4n(n3)CCOC4)c3ncnn3c2)C1` (single isomer, unassigned) [Example 8 (1S,3R)]: below 0.1 µM; `C=CC(=O)N[C@@H]1CC[C@H](c2cc(Nc3ccc(N4CCOCC4)cn3)c3ncnn3c2)C1` (single isomer, unassigned) [Example 9 (1R,3S)]: below 0.1 µM; `C=CC(=O)N[C@H]1CC[C@@H](c2cc(Nc3ccc(N4CCOCC4)cn3)c3ncnn3c2)C1` (single isomer, unassigned) [Example 9 (1S,3R)]: 0.1 to 1 µM.
In the case of `C=CC(=O)N1CCC[C@@H](c2cc(Nc3cc4n(n3)CCOC4)c3ncnn3c2)C1` (single isomer, unassigned) [Example F1.24] it was 1 to 50 µM.
For `C=CC(=O)N1CC[C@@H](c2cn3ncnc3c(Nc3cnn(C)c3)n2)C1` (single isomer, unassigned) [Example F1.25], the IC50 lay in the range of 1 to 50 µM.
In the case of `C=CS(=O)(=O)N1CC[C@H](c2cn3ncnc3c(Nc3ccc(OC)c(OC)c3)n2)C1` (single isomer, unassigned) [H.1] it was below 0.1 µM; in that of `C=CC(=O)NCc1cccc(-c2cn3ncnc3c(Nc3ccc(N4CCOCC4)cc3)n2)c1` [C.1.1], 1 to 50 µM; in that of `C=CC(=O)N1CCC(c2cc(Nc3ccn(C)n3)c3ncnn3c2)C1` (stereo not drawn) [Example 1, 1-(3-(8-((1-methyl-1H-pyrazol-3-yl)amino)-[1,2,4]triazolo[1,5-a]pyridin-6-yl)pyrrolidin-1-yl)prop-2-en-1-one], below 0.1 µM.
As to `C=CC(=O)N1CCC(c2cc(Nc3ccc(OC)nn3)c3ncnn3c2)C1` (stereo not drawn) [Example 2, 1-(3-(8-(6-Methoxypyridazin-3-ylamino)-[1,2,4]triazolo[1,5-a]pyridin-6-yl)pyrrolidin-1-yl)prop-2-en-1-one trifluoroacetate], the concentration for half-maximal inhibition (IC50) was 0.1 to 1 µM.
In the case of `C=CC(=O)N1CC[C@H](c2cc(Nc3cc4n(n3)CCOC4)c3ncnn3c2)C1` [Example 4, 1-{(R)-3-[8-(6,7-Dihydro-4H-pyrazolo[5,1-c][1,4]oxazin-2-ylamino)-[1,2,4]triazolo[1,5-a]pyridin-6-yl]-pyrrolidin-1-yl}-propenone] it was below 0.1 µM.
For `C=CC(=O)N1CCCC(c2cc(Nc3cc4n(n3)CCOC4)c3ncnn3c2)C1` (stereo not drawn) [Example F1.30, 1-(3-(8-((6,7-dihydro-4H-pyrazolo[5,1-c][1,4]oxazin-2-yl)amino)-[1,2,4]triazolo[1,5-a]pyridin-6-yl)piperidin-1-yl)prop-2-en-1-one], the IC50 was in the range of 0.1 to 1 µM.
For the compound `C=CC(=O)N1CCCC(c2cc(Nc3nc(C(C)C)no3)c3ncnn3c2)C1` (stereo not drawn) [Example F1.31, 1-(3-(8-((3-isopropyl-1,2,4-oxadiazol-5-yl)amino)-[1,2,4]triazolo[1,5-a]pyridin-6-yl)piperidin-1-yl)prop-2-en-1-one], the IC50 was in the range of 1 to 50 µM.
Next, `C=CC(=O)N1CCCC(c2cc(Nc3nc(C)no3)c3ncnn3c2)C1` (stereo not drawn) [Example F1.32, 1-(3-(8-((3-methyl-1,2,4-oxadiazol-5-yl)amino)-[1,2,4]triazolo[1,5-a]pyridin-6-yl)piperidin-1-yl)prop-2-en-1-one]: 1 to 50 µM.
Next, `C=CC(=O)N1CC[C@@H](c2cc(Nc3cc4n(n3)CCOC4)c3ncnn3c2)C1` [Example F1.33, (S)-1-(3-(8-((6,7-dihydro-4H-pyrazolo[5,1-c][1,4]oxazin-2-yl)amino)-[1,2,4]triazolo[1,5-a]pyridin-6-yl)pyrrolidin-1-yl)prop-2-en-1-one]: 1 to 50 µM; `C=CC(=O)N[C@H]1CC[C@@H](c2cc(Nc3ccn(C)n3)c3ncnn3c2)C1` [Example F1.34]: 0.1 to 1 µM; `C=CC(=O)N[C@@H]1CCC[C@H](c2cc(Nc3ccn(C)n3)c3ncnn3c2)C1` [Example F1.35]: below 0.1 µM.
Turning to `C=CC(=O)N[C@H]1CCC[C@H](c2cc(Nc3ccn(C)n3)c3ncnn3c2)C1` [Example F1.36], the IC50 lay within 0.1 to 1 µM.
As to `C=CC(=O)N1CC[C@@H](c2cc(Nc3ccn(C)n3)c3ncnn3c2)C1` [Example F1.37, (S)-1-(3-(8-((1-methyl-1H-pyrazol-3-yl)amino)-[1,2,4]triazolo[1,5-a]pyridin-6-yl)pyrrolidin-1-yl)prop-2-en-1-one], the IC50 was 1 to 50 µM.
With `C=CC(=O)N1CCC(c2cn3ncnc3c(Nc3ccc4c(c3)NC(=O)CCC4)n2)C1` (stereo not drawn) [F.1, 8-((6-(1-acryloylpyrrolidin-3-yl)-[1,2,4]triazolo[1,5-a]pyrazin-8-yl)amino)-4,5-dihydro-1H-benzo[b]azepin-2(3H)-one], the IC50 was below 0.1 µM.
For the compound `C=CC(=O)NCc1cccc(-c2cn3ncnc3c(NC34CC(C3)C4)n2)c1` [F.1.1], the half-inhibitory concentration (IC50) fell in the range of 0.1 to 1 µM.
Take `C=CC(=O)Nc1cccc(-c2cn3ncnc3c(NC34CC(C3)C4)n2)c1` [F.1.2]: the IC50 lay in the range of 0.1 to 1 µM.
In the case of `C=CC(=O)Nc1ccccc1-c1cn2ncnc2c(NC23CC(C2)C3)n1` [F.1.3] it was 1 to 50 µM; in that of `C=CC(=O)N1CCCC(c2cn3ncnc3c(Nc3ccc4c(c3)NC(=O)CCC4)n2)C1` (stereo not drawn) [F.1.4, 8-((6-(1-acryloylpiperidin-3-yl)-[1,2,4]triazolo[1,5-a]pyrazin-8-yl)amino)-4,5-dihydro-1H-benzo[b]azepin-2(3H)-one], below 0.1 µM; in that of `C=CC(=O)Nc1cccc(-c2cn3ncnc3c(Nc3ccc4c(c3)NC(=O)CCC4)n2)c1` [F.1.5, N-(3-(8-((2-oxo-2,3,4,5-tetrahydro-1H-benzo[b]azepin-8-yl)amino)-[1,2,4]triazolo[1,5-a]pyrazin-6-yl)phenyl)acrylamide], below 0.1 µM.
In the case of `C=CC(=O)N1CCC(c2cn3ncnc3c(Nc3ccc(OC)c(OC)c3)n2)C1` (stereo not drawn) [F.1.8] it was 0.1 to 1 µM; in that of `C=CC(=O)N1CC[C@@H](c2cn3ccnc3c(Nc3ccc4c(c3)NC(=O)CCC4)n2)C1` [F.1.9, (R)-8-((6-(1-acryloylpyrrolidin-3-yl)imidazo[1,2-a]pyrazin-8-yl)amino)-4,5-dihydro-1H-benzo[b]azepin-2(3H)-one], below 0.1 µM.
In the case of `C=CC(=O)N1CC[C@H](c2cn3ccnc3c(Nc3ccc4c(c3)NC(=O)CCC4)n2)C1` [F.1.10, (S)-8-((6-(1-acryloylpyrrolidin-3-yl)imidazo[1,2-a]pyrazin-8-yl)amino)-4,5-dihydro-1H-benzo[b]azepin-2(3H)-one] it was 0.1 to 1 µM; in that of `C=CC(=O)N1CC[C@H](c2cn3ncnc3c(Nc3ccc(OC)c(OC)c3)n2)C1` [F.1.11], 0.1 to 1 µM; in that of `C=CC(=O)N1CCC(c2cn3ncnc3c(Nc3ccc4c(c3)NC(=O)CC4)n2)C1` (stereo not drawn) [F.1.13, 7-((6-(1-acryloylpyrrolidin-3-yl)-[1,2,4]triazolo[1,5-a]pyrazin-8-yl)amino)-3,4-dihydroquinolin-2(1H)-one], 0.1 to 1 µM.
Consider `C=CC(=O)N1CCC(c2cc(Nc3ccc4c(c3)NC(=O)CCC4)c3ncnn3c2)C1` (stereo not drawn) [F.1.15, 8-((6-(1-acryloylpyrrolidin-3-yl)-[1,2,4]triazolo[1,5-a]pyridin-8-yl)amino)-4,5-dihydro-1H-benzo[b]azepin-2(3H)-one], for which the IC50 lay in the range of 0.1 to 1 µM.
`C=CC(=O)N1CCC(c2cn3ncnc3c(NC)n2)C1` (stereo not drawn) [F.1.16, 1-(3-(8-(methylamino)-[1,2,4]triazolo[1,5-a]pyrazin-6-yl)pyrrolidin-1-yl)prop-2-en-1-one]: the IC50 lay in the range of 1 to 50 µM.
In the case of `C=CC(=O)N1CCC(c2cn3ncnc3c(Nc3ccc(N4CCOCC4)nc3)n2)C1` (stereo not drawn) [F.1.19, 1-(3-(8-((6-morpholinopyridin-3-yl)amino)-[1,2,4]triazolo[1,5-a]pyrazin-6-yl)pyrrolidin-1-yl)prop-2-en-1-one] it was 0.1 to 1 µM; in that of `C=CC(=O)N1CCCC(c2cc(Nc3ccn(C)n3)c3ncnn3c2)C1` (stereo not drawn) [F.1.21, 1-(3-(8-((1-methyl-1H-pyrazol-3-yl)amino)-[1,2,4]triazolo[1,5-a]pyridin-6-yl)piperidin-1-yl)prop-2-en-1-one], 0.1 to 1 µM.
In the case of `C=CC(=O)N1CCC(c2cn3ncnc3c(Nc3cnn(C)c3)n2)C1` (stereo not drawn) [F.1.22, 1-(3-(8-((1-methyl-1H-pyrazol-4-yl)amino)-[1,2,4]triazolo[1,5-a]pyrazin-6-yl)pyrrolidin-1-yl)prop-2-en-1-one] it was below 0.1 µM; in that of `C=CC(=O)N1CCC(c2cn3ncnc3c(Nc3ccn(C)n3)n2)C1` (stereo not drawn) [F.1.23, 1-(3-(8-((1-methyl-1H-pyrazol-3-yl)amino)-[1,2,4]triazolo[1,5-a]pyrazin-6-yl)pyrrolidin-1-yl)prop-2-en-1-one], 1 to 50 µM.
